The source of these data is paper PMC8009514 (Langmuir, 2020).

Like-named read-outs stand apart in the source and are kept apart here. Ends that are not written are not given here.

The conditions of data set [1]: cited from earlier work. An excerpt:
Aggregates begin to form above a particular concentration, which can be interpreted as the monomer solubility, cs. This concentration can be measured, for example, by following the scattered light intensity as a function of dilution of a sample with an initial concentration c > cs.[13] For this purpose, solutions of the peptides at 1 wt % were gradually diluted in order to determine at which concentration the light scattering signal reached the solvent level, which is a good indication of the monomer solubility. With this method, monomer solubilities of 2 mM and 7 μM in water were determined f ...

Data set [2] is described as follows: Visual observation of gel-like (arrested) state. The class given is physicochemical. As for the experimental part: Previous SAXS experiments on the peptides in water[13],[17] have shown that this concentration could be considered dilute enough not to manifest any effects of interaggregate interactions in the scattering profiles. The first observation made was that the peptide samples in MeOH and DMF were more viscous than the corresponding samples in water prepared at similar concentrations and presented highly viscous (gel-like) states after 5-12 h from solubilization (Figure 2).

Data set [3] is described as follows: Monomer solubility (cs) from scattered light intensity on dilution. The class given is physicochemical. How it is done: Dynamic light scattering (DLS) experiments were performed with an ALV/DLS/SLS-5022F goniometer system with an ALV-7004 correlator at a scattering angle of 90°. The laser source was a 22 mW He–Ne laser with a wavelength of 632.8 nm. The samples were placed in 5 mm glass tubes, kept at 25 °C, and the intensity autocorrelation functions were collected over runs of 300 s, using two avalanche photodiode detectors operating in the pseudo-cross-correlational mode. Light scattering experiments were also performed using a modulated three-dimensional light scattering instrument (LS Instruments GmbH, Switzerland), implementing a laser with a wavelength of 660 nm and two avalanche photodiodes. […] The experimental intensity correlation functions g^(2)(τ) were converted to C(τ) = (g^(2)(τ) – 1)/β = |g^(1)(τ)|^2,[35] where β is an instrumental constant, close to unity, and g^(1)(τ) is the correlation function of the electric field, which was fitted using the cumulant expansion to obtain an average diffusion coefficient.[36] Fitting was performed with an in-house MATLAB script.
Aggregates begin to form above a particular concentration, which can be interpreted as the monomer solubility, cs. This concentration can be measured, for example, by following the scattered light intensity as a function of dilution of a sample with an initial concentration c > cs.[13] For this purpose, solutions of the peptides at 1 wt % were gradually diluted in order to determine at which concentration the light scattering signal reached the solvent level, which is a good indication of the monomer solubility. […] For A8K, the monomer solubilities of about 10 μM were obtained, which means approximately 2 orders of magnitude smaller compared to that in water.

For data set [4] the following is noted: cited from earlier work. An excerpt:
Table 1 Some Physicochemical Properties of the Three Solvents in Which the Self-Assembly of the Peptides Was Investigated | column: H2O; MeOH; DMF
The source holds these as a separate data set.

Data set [5] deals with the molecule itself. In words: light scattering intensity on dilution; peptide in N,N-dimethylformamide, 1 wt % solution gradually diluted, mean count rate at 90°; concentration at which the signal reaches the solvent level is taken as monomer solubility.
The nature of data set [6]: light scattering intensity on dilution; peptide in methanol, 1 wt % solution gradually diluted, mean count rate at 90°; concentration at which the signal reaches the solvent level is taken as monomer solubility. Particulars: other: light scattering intensity on dilution.
Data set [7] in a line: light scattering intensity on dilution; peptide in N,N-dimethylformamide, 1 wt % solution gradually diluted, mean count rate at 90°; concentration at which the signal reaches the solvent level is taken as monomer solubility. Particulars: other: light scattering intensity on dilution.

As for `C[C@H](N)C(=O)N[C@@H](C)C(=O)N[C@@H](C)C(=O)N[C@@H](C)C(=O)N[C@@H](C)C(=O)N[C@@H](C)C(=O)N[C@@H](C)C(=O)N[C@@H](C)C(=O)N[C@@H](C)C(=O)N[C@@H](C)C(=O)N[C@@H](CCCCN)C(=O)O` [A10K], the monomer solubility cs in data set [1] (in water, scattered light intensity on dilution of a sample with c > cs) was 7 µM; in data set [3] (in DMF, 1 wt % TFA-salt solution gradually diluted until light scattering signal reached solvent level, mean count rate at 90°, average of three runs of 100 s), “approximately the same solubilities”; in data set [3] (in MeOH, 1 wt % TFA-salt solution gradually diluted until light scattering signal reached solvent level, mean count rate at 90°, average of three runs of 100 s) it was “approximately the same solubilities”. The “time from solubilization to highly viscous (gel-like) state” value in data set [2] (samples around 1 wt % in MeOH and DMF) was 5 to 12 h.
Turning to `CCCCCCCCCCCCOS(=O)(=O)[O-].[Na+]` [SDS], the CMC of SDS at 25 °C was 14.6 mM in data set [4] (in DMF), 7.8 mM in data set [4] (in H2O) and 6.9 mM in data set [4] (in MeOH).
As for `CCCCCC` [hexane], the “solubility of hexane at 25 °C” value is 0.0124 mg/mL in data set [4] (in H2O) and 604 mg/mL in data set [4] (in MeOH).
Take AAAAAAAAK [A8K]: the monomer solubility cs in data set [1] is 2000 µM; in data set [3] it was “about 10 μM”. Moreover, the “time from solubilization to highly viscous (gel-like) state” value in data set [2] was in the range of 5 to 12 h.

B1: A10K amphiphilic model peptide (peptide)
peptide: AAAAAAAAAAK
notes: unprotected N-terminus; 11 residues, 857 g/mol; Designed model peptide; The printed molecular weight (857 g/mol) fits free N- and C-termini; TFA counterions are present; also called AnK (n = 10); source: synthetic peptide; bought: CPC Scientific Inc., trifluoroacetate salt, purity >96%, used without further purification
As to B1, the binding result in data set [5] was “binds”.
For the molecule AAAAAAAAK [A8K amphiphilic model peptide], the “monomer solubility cs (concentration above which aggregates form)” value in data set [6] was “For A8K, the monomer solubilities of about 10 μM were obtained”; in data set [7], “For A8K, the monomer solubilities of about 10 μM were obtained”.
